Source: ChEMBL document CHEMBL1142563, “Isolation and structure of phakellistatin 14 from the Western Pacific marine sponge Phakellia sp” (2005)
Converted amounts (≈) assume the structure as drawn. Where a SMILES comes first, the peptide text is derived from it. [ ]: non-standard residue; d: D form. Met(O) = CS(=O)CC[C@H](N)C(=O)O

Tested on: P388
Assay: Cytotoxicity against mouse P388 cells
Assay type: functional
Conditions: read-out: ED50 (the source's name)

`CC[C@H](C)[C@@H]1NC(=O)[C@H](C)NC(=O)[C@H](CC[S+](C)[O-])NC(=O)[C@H](C)NC(=O)[C@H](CC(=O)OC)NC(=O)[C@H](Cc2ccccc2)NC(=O)[C@@H]2CCCN2C1=O` (stereo partly specified) [PHAKELLISTATIN 14] (cyclo(AIPFD(OMe)A[Met(O)])) was tested, and the EC50 was 5 µg/mL (≈ 6.44 µM).
